B2: Thermotoga maritima Mre11 (residues L7M-385) (enzyme, UniProt Q9X1X0 7-385, looked up)
chain: MKILHTSDWHLGVTSWTSSRPVDRREELKKALDKVVEEAEKREVDLILLTGDLLHSRNNPSVVALHDLLDYLKRMMRTAPVVVLPGNHDWKGLKLFGNFVTSISSDITFVMSFEPVDVEAKRGQKVRILPFPYPDESEALRKNEGDFRFFLESRLNKLYEEALKKEDFAIFMGHFTVEGLAGYAGIEQGREIIINRALIPSVVDYAALGHIHSFREIQKQPLTIYPGSLIRIDFGEEADEKGAVFVELKRGEPPRYERIDASPLPLKTLYYKKIDTSALKSIRDFCRNFPGYVRVVYEEDSGILPDLMGEIDNLVKIERKSRREIEEVLRESPEEFKEELDKLDYFELFKEYLKKREENHEKLLKILDELLDEVKKSEA

The target of data set [1] is T1, TmMre11:Rad50^NBD (TmMR^NBD catalytic head) (Thermotoga maritima, UniProt Q9X1X1, DEL191-685). Nature of the data set: SPR and EMSA, nucleotide-stimulated DNA binding. It counts as biochemical. Conditions: dsDNA 50mer, hairpin DNA.
For data set [2], the target named is TmMre11:Rad50^NBD (TmMR^NBD catalytic head) (Thermotoga maritima, UniProt Q9X1X1, DEL191-685, form not given). Nature of the data set: reduced BMOE crosslinking of Mre11 dimer, SDS PAGE. It is filed as binding. The conditions noted are these: nucleotide binds Rad50; read-out at Mre11 dimer interface.
In data set [3] the target is TmMre11:Rad50^NBD (TmMR^NBD catalytic head) (Thermotoga maritima, UniProt Q9X1X1, DEL191-685/D804C/H830C). The data set can be described thus: ATP-induced disulfide bond formation between Rad50 NBDs. The conditions noted are these: Cu2+. It counts as binding.
Sequence of TmMre11:Rad50^NBD (TmMR^NBD catalytic head) (Thermotoga maritima, UniProt Q9X1X1, DEL191-685/D804C/H830C) (Q9X1X1 686-852 D804C/H830C, one chain of several): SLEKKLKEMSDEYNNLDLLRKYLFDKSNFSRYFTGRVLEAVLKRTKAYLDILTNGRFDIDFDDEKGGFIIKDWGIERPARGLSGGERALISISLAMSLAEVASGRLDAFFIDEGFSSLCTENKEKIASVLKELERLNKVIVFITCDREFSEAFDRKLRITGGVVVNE
The target in data set [4] is TmMre11:Rad50^NBD (TmMR^NBD catalytic head) (Thermotoga maritima, UniProt Q9X1X1, N64C/DEL191-685/I760C). The data set can be described thus: ATP-dependent BMOE crosslinking of Rad50 NBDs, SDS PAGE. It is filed as binding.
Sequence of TmMre11:Rad50^NBD (TmMR^NBD catalytic head) (Thermotoga maritima, UniProt Q9X1X1, N64C/DEL191-685/I760C) (Q9X1X1 1-190 N64C, one chain of several): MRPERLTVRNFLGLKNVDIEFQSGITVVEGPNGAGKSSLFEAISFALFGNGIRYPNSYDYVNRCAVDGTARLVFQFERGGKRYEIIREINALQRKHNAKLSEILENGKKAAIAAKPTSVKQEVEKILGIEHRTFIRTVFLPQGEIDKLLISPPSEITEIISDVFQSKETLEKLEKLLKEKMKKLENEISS
Sequence of TmMre11:Rad50^NBD (TmMR^NBD catalytic head) (Thermotoga maritima, UniProt Q9X1X1, N64C/DEL191-685/I760C) (Q9X1X1 686-852 I760C, one chain of several): as the sequence (Q9X1X1 686-852 D804C/H830C, one chain of several) above, with I75C, C119D, C145H counted along it
Data set [5] concerns the target T1, TmMre11:Rad50^NBD (TmMR^NBD catalytic head). Nature of the data set: ATPase activity. It is filed as biochemical.
The target in data set [6] is TmMre11:Rad50^NBD (TmMR^NBD catalytic head) (Thermotoga maritima, UniProt Q9X1X1, DEL191-685/D804C/H830C, form not given). Nature of the data set: ATP-induced disulfide bond formation between Rad50 NBDs. It counts as binding. The conditions noted are these: Cu2+.
Sequence of TmMre11:Rad50^NBD (TmMR^NBD catalytic head) (Thermotoga maritima, UniProt Q9X1X1, DEL191-685/D804C/H830C, form not given) (Q9X1X0 7-385 L7M/F291S, form open, one chain of several, further chain): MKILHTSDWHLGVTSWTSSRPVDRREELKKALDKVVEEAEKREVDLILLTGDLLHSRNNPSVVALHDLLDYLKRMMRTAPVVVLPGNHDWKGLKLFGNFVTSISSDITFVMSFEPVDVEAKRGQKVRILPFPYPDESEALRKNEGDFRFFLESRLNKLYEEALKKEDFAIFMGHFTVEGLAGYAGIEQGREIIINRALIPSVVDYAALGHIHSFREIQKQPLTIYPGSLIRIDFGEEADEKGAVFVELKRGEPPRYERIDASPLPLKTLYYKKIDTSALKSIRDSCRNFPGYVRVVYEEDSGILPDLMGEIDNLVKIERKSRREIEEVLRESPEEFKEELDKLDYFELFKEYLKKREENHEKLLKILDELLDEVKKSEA
Sequence of TmMre11:Rad50^NBD (TmMR^NBD catalytic head) (Thermotoga maritima, UniProt Q9X1X1, DEL191-685/D804C/H830C, form not given) (Q9X1X1 686-852 D804C/H830C, form open, one chain of several): as the sequence (Q9X1X1 686-852 D804C/H830C, one chain of several) above
The target in data set [7] is T1, TmMre11:Rad50^NBD (TmMR^NBD catalytic head). The data set can be described thus: SAXS, compaction of catalytic head. It is filed as binding. The conditions noted are these: 50 mM Tris pH 7.7, 100 mM NaCl, 5 mM MnCl2, 10 mM MgCl2.
The data set “co-purification” deals with the molecule itself. The data set can be described thus: co-purification.
The data set “crystal structure” concerns the molecule itself. Nature of the data set: crystal structure.
Data set [8] has as its target B2. The data set can be described thus: crystal structure.

For `Nc1ncnc2c1ncn2[C@@H]1O[C@H](COP(=O)(O)OP(=O)(O)NP(=O)(O)O)[C@@H](O)[C@H]1O` [AMPPNP], in [1], the “SPR and EMSA, nucleotide-stimulated DNA binding” value was “SPR showed a strong effect of AMPPNP on dsDNA and hairpin DNA binding by TmMre11:Rad50^NBD”. As to `Nc1ncnc2c1ncn2[C@@H]1O[C@H](COP(=O)(O)OP(=O)(O)OP(=O)(O)O)[C@@H](O)[C@H]1O` [ATP], the “reduced BMOE crosslinking of Mre11 dimer, SDS PAGE” value in [2] is “ATP, AMPPNP and ATPγS reduced the ability of BMOE to crosslink Mre11 S110C dimers”. Moreover, the “ATP-induced disulfide bond formation between Rad50 NBDs” value was “ATP induced formation of a disulfide bond between D804C and H830C” in data set [3]; “we can now efficiently crosslink the NBDs by disulfide bond formation” in data set [6]. Further, the “ATP-dependent BMOE crosslinking of Rad50 NBDs, SDS PAGE” value in data set [4] was “crosslink the two NBDs in the presence of ATP, but not in the absence of ATP”. Besides, in data set [5], the ATPase activity entry is “Both proteins form a stoichiometric complex with ATPase as well as DNA binding activity”. Turning to `Nc1ncnc2c1ncn2[C@@H]1O[C@H](COP(=O)(O)OP(=O)(O)OP(O)(O)=S)[C@@H](O)[C@H]1O` [ATPγS], the “SAXS, compaction of catalytic head (radius of gyration)” value in data set [7] is listed as “Adding ATPγS indeed resulted in a substantial decrease of the radius of gyration (Rg)”.

B1: Thermotoga maritima Mre11 S110C (enzyme, UniProt Q9X1X0 7-385, looked up)
chain: MKILHTSDWHLGVTSWTSSRPVDRREELKKALDKVVEEAEKREVDLILLTGDLLHSRNNPSVVALHDLLDYLKRMMRTAPVVVLPGNHDWKGLKLFGNFVTSICSDITFVMSFEPVDVEAKRGQKVRILPFPYPDESEALRKNEGDFRFFLESRLNKLYEEALKKEDFAIFMGHFTVEGLAGYAGIEQGREIIINRALIPSVVDYAALGHIHSFREIQKQPLTIYPGSLIRIDFGEEADEKGAVFVELKRGEPPRYERIDASPLPLKTLYYKKIDTSALKSIRDFCRNFPGYVRVVYEEDSGILPDLMGEIDNLVKIERKSRREIEEVLRESPEEFKEELDKLDYFELFKEYLKKREENHEKLLKILDELLDEVKKSEA
Consider B1, for which, in “co-purification”, the binding result is reported as “binds”. Usually stoichiometry N stands for a count of units in the complex or per binding partner. For B2, in the data set “crystal structure”, the “stoichiometry N” value worked out at 2.

B3: Thermotoga maritima Rad50^NBD (residues 1-190 and 686-852 joined by the linker GGAGGAGG) (domain or fragment)
chain: MRPERLTVRNFLGLKNVDIEFQSGITVVEGPNGAGKSSLFEAISFALFGNGIRYPNSYDYVNRNAVDGTARLVFQFERGGKRYEIIREINALQRKHNAKLSEILENGKKAAIAAKPTSVKQEVEKILGIEHRTFIRTVFLPQGEIDKLLISPPSEITEIISDVFQSKETLEKLEKLLKEKMKKLENEISSGGAGGAGGSLEKKLKEMSDEYNNLDLLRKYLFDKSNFSRYFTGRVLEAVLKRTKAYLDILTNGRFDIDFDDEKGGFIIKDWGIERPARGLSGGERALISISLAMSLAEVASGRLDAFFIDEGFSSLDTENKEKIASVLKELERLNKVIVFITHDREFSEAFDRKLRITGGVVVNE
As for B3, in data set [8], the binding result is given as “binds”.
